Target: Aβ42 (Homo sapiens, UniProt P05067)
Assay: Th-T (thioflavin-T) assay of Aβ42 aggregation
Assay type: biochemical
Settings: for Th-T assay plate reading, mean of three wells (Supplementary Fig. 47): source data, Ab alone and No Ab as controls

Aβ42, sequence (P05067 672-713): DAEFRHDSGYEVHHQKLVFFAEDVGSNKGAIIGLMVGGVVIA

Structure (SMILES): C=C1CC[C@H]2[C@]3(C)C[C@H](C=C(C)C)O[C@H]3CC[C@]2(C)[C@@H]1Cc1c(OC)oc(C)c(C)c1=O [Compound 24]
- Th-T fluorescence, mean of three wells (Aβ42 aggregation time course, reading M117): 3.93
- Th-T fluorescence, mean of three wells (Aβ42 aggregation time course, reading M118): 3.9367
- Th-T fluorescence, mean of three wells (Aβ42 aggregation time course, reading M119): 3.915
- Th-T fluorescence, mean of three wells (Aβ42 aggregation time course, reading M120): 3.905
- Th-T fluorescence, mean of three wells (Aβ42 aggregation time course, reading M121): 3.903
- Th-T fluorescence, mean of three wells (Aβ42 aggregation time course, reading M122): 3.899
- Th-T fluorescence, mean of three wells (Aβ42 aggregation time course, reading M123): 3.9273
- Th-T fluorescence, mean of three wells (Aβ42 aggregation time course, reading M124): 3.899
- Th-T fluorescence, mean of three wells (Aβ42 aggregation time course, reading M125): 3.909
- Th-T fluorescence, mean of three wells (Aβ42 aggregation time course, reading M126): 3.889
- Th-T fluorescence, mean of three wells (Aβ42 aggregation time course, reading M127): 3.86
- Th-T fluorescence, mean of three wells (Aβ42 aggregation time course, reading M128): 3.875
- Th-T fluorescence, mean of three wells (Aβ42 aggregation time course, reading M129): 3.876
- Th-T fluorescence, mean of three wells (Aβ42 aggregation time course, reading M130): 3.844
- Th-T fluorescence, mean of three wells (Aβ42 aggregation time course, reading M131): 3.869
- Th-T fluorescence, mean of three wells (Aβ42 aggregation time course, reading M132): 3.865
- Th-T fluorescence, mean of three wells (Aβ42 aggregation time course, reading M133): 3.8524
- Th-T fluorescence, mean of three wells (Aβ42 aggregation time course, reading M134): 3.8749
- Th-T fluorescence, mean of three wells (Aβ42 aggregation time course, reading M135): 3.85
- Th-T fluorescence, mean of three wells (Aβ42 aggregation time course, reading M136): 3.855
- Th-T fluorescence, mean of three wells (Supplementary Fig. 47, reading M137): 3.87
- Th-T fluorescence, mean of three wells (Supplementary Fig. 47, reading M138): 3.855
- Th-T fluorescence, mean of three wells (Supplementary Fig. 47, reading M139): 3.871
- Th-T fluorescence, mean of three wells (Supplementary Fig. 47, reading M140): 3.832
- Th-T fluorescence, mean of three wells (Supplementary Fig. 47, reading M141): 3.853
- Th-T fluorescence, mean of three wells (Supplementary Fig. 47, reading M142): 3.823
- Th-T fluorescence, mean of three wells (Supplementary Fig. 47, reading M143): 3.843
- Th-T fluorescence, mean of three wells (Supplementary Fig. 47, reading M144): 3.8288
- Th-T fluorescence, mean of three wells (Supplementary Fig. 47, reading M145): 3.794
- Th-T fluorescence, mean of three wells (Supplementary Fig. 47 source data, measurement M37 of time course): 4.118
- Th-T fluorescence, mean of three wells (Supplementary Fig. 47 source data, measurement M38 of time course): 4.1
- Th-T fluorescence, mean of three wells (Supplementary Fig. 47 source data, measurement M39 of time course): 4.133
- Th-T fluorescence, mean of three wells (Supplementary Fig. 47 source data, measurement M40 of time course): 4.141
- Th-T fluorescence, mean of three wells (Supplementary Fig. 47 source data, measurement M41 of time course): 4.132
- Th-T fluorescence, mean of three wells (Supplementary Fig. 47 source data, measurement M42 of time course): 4.118
- Th-T fluorescence, mean of three wells (Supplementary Fig. 47 source data, measurement M43 of time course): 4.101
- Th-T fluorescence, mean of three wells (Supplementary Fig. 47 source data, measurement M44 of time course): 4.12
- Th-T fluorescence, mean of three wells (Supplementary Fig. 47 source data, measurement M45 of time course): 4.146
- Th-T fluorescence, mean of three wells (Supplementary Fig. 47 source data, measurement M46 of time course): 4.159
- Th-T fluorescence, mean of three wells (Supplementary Fig. 47 source data, measurement M47 of time course): 4.139
- Th-T fluorescence, mean of three wells (Supplementary Fig. 47 source data, measurement M48 of time course): 4.146
- Th-T fluorescence, mean of three wells (Supplementary Fig. 47 source data, measurement M49 of time course): 4.116
- Th-T fluorescence, mean of three wells (Supplementary Fig. 47 source data, measurement M50 of time course): 4.153
- Th-T fluorescence, mean of three wells (Supplementary Fig. 47 source data, measurement M51 of time course): 4.157
- Th-T fluorescence, mean of three wells (Supplementary Fig. 47 source data, measurement M52 of time course): 4.123
- Th-T fluorescence, mean of three wells (Supplementary Fig. 47 source data, measurement M53 of time course): 4.133
- Th-T fluorescence, mean of three wells (Supplementary Fig. 47 source data, measurement M54 of time course): 4.156
- Th-T fluorescence, mean of three wells (Supplementary Fig. 47 source data, measurement M55 of time course): 4.1334
- Th-T fluorescence, mean of three wells (Supplementary Fig. 47 source data, measurement M56 of time course): 4.113
- Th-T assay plate reading, mean of three wells (Supplementary Fig. 47) (measurement M1): 0.168
- Th-T assay plate reading, mean of three wells (Supplementary Fig. 47) (measurement M2): 0.1686
- Th-T assay plate reading, mean of three wells (Supplementary Fig. 47) (measurement M3): 0.1808
- Th-T assay plate reading, mean of three wells (Supplementary Fig. 47) (measurement M4): 0.1943
- Th-T assay plate reading, mean of three wells (Supplementary Fig. 47) (measurement M5): 0.213
- Th-T assay plate reading, mean of three wells (Supplementary Fig. 47) (measurement M6): 0.2405
- Th-T assay plate reading, mean of three wells (Supplementary Fig. 47) (measurement M7): 0.3234
- Th-T assay plate reading, mean of three wells (Supplementary Fig. 47) (measurement M8): 0.379
- Th-T assay plate reading, mean of three wells (Supplementary Fig. 47) (measurement M9): 0.4389
- Th-T assay plate reading, mean of three wells (Supplementary Fig. 47) (measurement M10): 0.7586
- Th-T assay plate reading, mean of three wells (Supplementary Fig. 47) (measurement M11): 1.544
- Th-T assay plate reading, mean of three wells (Supplementary Fig. 47) (measurement M12): 2.364
- Th-T assay plate reading, mean of three wells (Supplementary Fig. 47) (measurement M13): 2.959
- Th-T assay plate reading, mean of three wells (Supplementary Fig. 47) (measurement M14): 3.254
- Th-T assay plate reading, mean of three wells (Supplementary Fig. 47) (measurement M15): 3.396
- Th-T assay plate reading, mean of three wells (Supplementary Fig. 47) (measurement M16): 3.5133
- Th-T fluorescence, mean of three wells (reading M17, Supplementary Fig. 47 source data): 3.637
- Th-T fluorescence, mean of three wells (reading M18, Supplementary Fig. 47 source data): 3.688
- Th-T fluorescence, mean of three wells (reading M19, Supplementary Fig. 47 source data): 3.715
- Th-T fluorescence, mean of three wells (reading M20, Supplementary Fig. 47 source data): 3.759
- Th-T fluorescence, mean of three wells (reading M21, Supplementary Fig. 47 source data): 3.811
- Th-T fluorescence, mean of three wells (reading M22, Supplementary Fig. 47 source data): 3.836
- Th-T fluorescence, mean of three wells (reading M23, Supplementary Fig. 47 source data): 3.884
- Th-T fluorescence, mean of three wells (reading M24, Supplementary Fig. 47 source data): 3.963
- Th-T fluorescence, mean of three wells (reading M25, Supplementary Fig. 47 source data): 3.926
- Th-T fluorescence, mean of three wells (reading M26, Supplementary Fig. 47 source data): 3.978
- Th-T fluorescence, mean of three wells (reading M27, Supplementary Fig. 47 source data): 3.957
- Th-T fluorescence, mean of three wells (reading M28, Supplementary Fig. 47 source data): 4.012
- Th-T fluorescence, mean of three wells (reading M29, Supplementary Fig. 47 source data): 4.002
- Th-T fluorescence, mean of three wells (reading M30, Supplementary Fig. 47 source data): 4.039
- Th-T fluorescence, mean of three wells (reading M31, Supplementary Fig. 47 source data): 4.06
- Th-T fluorescence, mean of three wells (reading M32, Supplementary Fig. 47 source data): 4.053
- Th-T fluorescence, mean of three wells (reading M33, Supplementary Fig. 47 source data): 4.071
- Th-T fluorescence, mean of three wells (reading M34, Supplementary Fig. 47 source data): 4.107
- Th-T fluorescence, mean of three wells (reading M35, Supplementary Fig. 47 source data): 4.086
- Th-T fluorescence, mean of three wells (reading M36, Supplementary Fig. 47 source data): 4.108
- Th-T fluorescence, mean of three wells (time course, reading M57): 4.13
- Th-T fluorescence, mean of three wells (time course, reading M58): 4.119
- Th-T fluorescence, mean of three wells (time course, reading M59): 4.1173
- Th-T fluorescence, mean of three wells (time course, reading M60): 4.127
- Th-T fluorescence, mean of three wells (time course, reading M61): 4.118
- Th-T fluorescence, mean of three wells (time course, reading M62): 4.092
- Th-T fluorescence, mean of three wells (time course, reading M63): 4.112
- Th-T fluorescence, mean of three wells (time course, reading M64): 4.119
- Th-T fluorescence, mean of three wells (time course, reading M65): 4.128
- Th-T fluorescence, mean of three wells (time course, reading M66): 4.121
- Th-T fluorescence, mean of three wells (time course, reading M67): 4.11
- Th-T fluorescence, mean of three wells (time-course reading M97, Supplementary Fig. 47 source data): 3.985
- Th-T fluorescence, mean of three wells (time-course reading M98, Supplementary Fig. 47 source data): 4.028
- Th-T fluorescence, mean of three wells (time-course reading M99, Supplementary Fig. 47 source data): 3.988
- Th-T fluorescence, mean of three wells (time-course reading M100, Supplementary Fig. 47 source data): 4.004
- Th-T fluorescence, mean of three wells (time-course reading M101, Supplementary Fig. 47 source data): 3.9991
- Th-T fluorescence, mean of three wells (time-course reading M102, Supplementary Fig. 47 source data): 3.997
- Th-T fluorescence, mean of three wells (time-course reading M103, Supplementary Fig. 47 source data): 3.988
- Th-T fluorescence, mean of three wells (time-course reading M104, Supplementary Fig. 47 source data): 3.979
- Th-T fluorescence, mean of three wells (time-course reading M105, Supplementary Fig. 47 source data): 4.002
- Th-T fluorescence, mean of three wells (time-course reading M106, Supplementary Fig. 47 source data): 3.966
- Th-T fluorescence, mean of three wells (time-course reading M107, Supplementary Fig. 47 source data): 3.935
- Th-T fluorescence, mean of three wells (time-course reading M108, Supplementary Fig. 47 source data): 3.958
- Th-T fluorescence, mean of three wells (time-course reading M109, Supplementary Fig. 47 source data): 3.936
- Th-T fluorescence, mean of three wells (time-course reading M110, Supplementary Fig. 47 source data): 3.951
- Th-T fluorescence, mean of three wells (time-course reading M111, Supplementary Fig. 47 source data): 3.932
- Th-T fluorescence, mean of three wells (time-course reading M112, Supplementary Fig. 47 source data): 3.941
- Th-T fluorescence, mean of three wells (time-course reading M113, Supplementary Fig. 47 source data): 3.942
- Th-T fluorescence, mean of three wells (time-course reading M114, Supplementary Fig. 47 source data): 3.927
- Th-T fluorescence, mean of three wells (time-course reading M115, Supplementary Fig. 47 source data): 3.938
- Th-T fluorescence, mean of three wells (time-course reading M116, Supplementary Fig. 47 source data): 3.922

— publication PMC7156458, “Synthetic biology based construction of biological activity-related library of fungal decalin-containing diterpenoid pyrones” (Nature Communications, 2020)
